Tests used:
human TLR3 = biological target: T1, human TLR3 (Homo sapiens, UniProt O15455); assay: NF-κB activation (secreted alkaline phosphatase reporter) in HEK293 cells expressing human TLR3; format: cell-based; conditions: HEK293/hTLR3 cell line; polynucleotide final concentration 10 μg/mL; 16-20 hours
T1 construct: host or cells: HEK293
T1 sequence (O15455 24-904): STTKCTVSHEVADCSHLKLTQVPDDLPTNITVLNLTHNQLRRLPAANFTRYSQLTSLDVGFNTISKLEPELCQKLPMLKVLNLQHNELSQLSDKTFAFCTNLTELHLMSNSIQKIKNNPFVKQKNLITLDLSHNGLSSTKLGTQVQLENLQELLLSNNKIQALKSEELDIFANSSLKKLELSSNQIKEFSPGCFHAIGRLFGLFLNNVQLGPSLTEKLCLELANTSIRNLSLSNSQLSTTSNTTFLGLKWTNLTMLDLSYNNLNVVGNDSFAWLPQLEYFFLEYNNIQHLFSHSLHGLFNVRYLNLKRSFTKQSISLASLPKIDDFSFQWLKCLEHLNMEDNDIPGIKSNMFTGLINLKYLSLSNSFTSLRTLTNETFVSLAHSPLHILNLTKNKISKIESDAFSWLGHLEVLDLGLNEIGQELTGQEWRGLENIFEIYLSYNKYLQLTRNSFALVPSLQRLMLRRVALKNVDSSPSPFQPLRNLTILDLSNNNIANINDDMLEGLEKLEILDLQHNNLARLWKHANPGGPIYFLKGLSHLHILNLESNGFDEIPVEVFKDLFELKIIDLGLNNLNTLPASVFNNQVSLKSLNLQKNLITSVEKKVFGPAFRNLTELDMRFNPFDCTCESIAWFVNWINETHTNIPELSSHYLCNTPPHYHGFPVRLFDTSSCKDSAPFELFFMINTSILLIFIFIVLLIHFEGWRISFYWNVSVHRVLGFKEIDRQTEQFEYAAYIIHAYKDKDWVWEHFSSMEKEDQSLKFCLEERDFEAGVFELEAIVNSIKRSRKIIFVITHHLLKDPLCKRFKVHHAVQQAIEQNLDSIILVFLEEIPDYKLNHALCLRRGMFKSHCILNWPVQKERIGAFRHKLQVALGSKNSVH
Procedure: (§1) Toll-like receptors (TLR) are known to interact with a number of natural and synthetic molecules that can function as immune adjuvants. Examples of these molecules are Poly (I:C) polynucleotides, lipopolysaccharide and CpG-containing polynucleotides. The interaction of non-DNA base-containing polynucleotides (SEQ ID NOs: 1-3) to interact with TLR and induce down-stream signaling was tested by assessing NF-κB activation in HEK293 cells expressing human TLR2, 3, 4, 5, 7, 8 and 9. TLR engagement was determined by measurement of secreted alkaline phosphatase, under the control of a reporter inducible by NF-κB. Appropriate positive controls were used for each TLR. The non-DNA base-containing polynucleotides were dissolved in sterile water at a concentration of 100 μg/mL, and used at a final concentration of 10 μg/mL. HEK293 cells containing the appropriate TLR and NF-κB reporting system (InvivoGen, San Diego, Calif., USA) were placed in wells of 96 well plates (25,000-50,000 cells, in a final volume of 200 μL medium designed for the detection of NF-κB induced secreted alkaline phosphatase expression), and incubated with non-DNA base-containing polynucleotides or positive controls for 16-20 hours. TLR activating activity was determined by measurement of absorbance at 650 nm wavelength using a Coulter AD340C absorbance detector. The results shown are expressed as Optical Density (OD).

human TLR7 = biological target: T2, human TLR7 (Homo sapiens, UniProt Q9NYK1); assay: NF-κB activation (secreted alkaline phosphatase reporter) in HEK293 cells expressing human TLR7; format: cell-based; conditions: HEK293/TLR7 cell line; polynucleotide final concentration 10 μg/mL; 16-20 hours
T2 construct: host or cells: HEK293
T2 sequence (Q9NYK1 27-1049): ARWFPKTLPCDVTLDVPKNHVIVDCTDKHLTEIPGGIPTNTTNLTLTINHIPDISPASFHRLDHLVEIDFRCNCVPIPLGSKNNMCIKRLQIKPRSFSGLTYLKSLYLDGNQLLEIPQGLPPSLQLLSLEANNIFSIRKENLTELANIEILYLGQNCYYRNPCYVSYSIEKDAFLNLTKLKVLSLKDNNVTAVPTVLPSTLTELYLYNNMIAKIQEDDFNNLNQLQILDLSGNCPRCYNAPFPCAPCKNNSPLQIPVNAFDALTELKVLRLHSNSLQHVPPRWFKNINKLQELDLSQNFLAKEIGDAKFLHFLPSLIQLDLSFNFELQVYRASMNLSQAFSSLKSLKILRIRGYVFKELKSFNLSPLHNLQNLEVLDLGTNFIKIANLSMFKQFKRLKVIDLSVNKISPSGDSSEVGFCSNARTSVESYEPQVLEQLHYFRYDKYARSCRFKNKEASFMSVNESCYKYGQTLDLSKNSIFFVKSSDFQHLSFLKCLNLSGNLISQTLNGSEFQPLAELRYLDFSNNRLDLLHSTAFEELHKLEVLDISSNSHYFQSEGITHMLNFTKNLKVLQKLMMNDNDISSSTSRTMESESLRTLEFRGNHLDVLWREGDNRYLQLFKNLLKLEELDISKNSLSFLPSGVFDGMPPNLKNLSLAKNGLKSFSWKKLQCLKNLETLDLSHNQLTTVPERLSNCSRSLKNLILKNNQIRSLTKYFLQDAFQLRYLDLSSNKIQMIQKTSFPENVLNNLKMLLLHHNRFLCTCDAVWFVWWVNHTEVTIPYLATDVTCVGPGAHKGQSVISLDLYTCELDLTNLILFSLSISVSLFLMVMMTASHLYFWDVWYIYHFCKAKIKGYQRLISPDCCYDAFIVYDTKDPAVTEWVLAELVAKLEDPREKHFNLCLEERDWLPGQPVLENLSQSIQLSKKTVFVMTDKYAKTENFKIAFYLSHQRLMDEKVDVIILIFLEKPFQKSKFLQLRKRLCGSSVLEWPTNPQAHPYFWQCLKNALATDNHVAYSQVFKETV
Procedure: as §1, with “The interaction of non-DNA base-containing polynucleotides (SEQ ID NOs: 1-3) to interact with TLR and induce down-stream signaling was tested by assessing NF-κB activation in HEK293 cells expressing human TLR2, 3, 4, 5, 7, 8 and 9.” left out

| Substance | TLR activation, Optical Density at 650 nm, hTLR3 (human TLR3) | TLR activation, Optical Density at 650 nm, hHTR7 (human TLR7) |
| --- | --- | --- |
| IIGTII [SEQ ID NO: 3] | 0.057 | 0.093 |
| NebGGTGNeb (DNA NGGTGN; Nebularine at both ends, sugar and linkages not given here, further chemistry not given here) [SEQ ID NO: 1, 5′-OH, 3′-OH non-DNA base-containing polynucleotide] | 0.055 | 0.097 |
| UUGTUU [SEQ ID NO: 2] | 0.056 | 0.090 |

Source: US20110111016A1, “NON-DNA BASE-CONTAINING POLYNUCLEOTIDE COMPOSITIONS AND THEIR USE FOR THE MODULATION OF IMMUNE RESPONSES” (priority 2009, published 2011)
